Experiment [1] deals with HCT116 isogenic IDH1-R132H mutant cells. As to the kind of experiment: Cellular 2-HG assay using HCT116 mutant IDH1 cells (R132H), RapidFire mass spectrometry. It is filed as cell-based. The settings on record: Homo sapiens, HCT-116; cellular 2-HG level, HCT116 IDH1-R132H cells, 24 hours; read-out: HCT116 IDH1 R132H IC50 (Range). Here is the method: (§1) Example 106—Cellular 2-HG assay using HCT116 mutant IDH1 cells
(§2) HCT116 isogenic IDH1-R132H and IDH1-R132C mutant cells were cultured in growth media (McCoy's 5 A, 10% fetal bovine serum, 1× antibiotic-antimycotic solution and 0.3 mg/mL G418) in 5% CO2 in an incubator at 37° C. To prepare the assay, cells were trypsinized and resuspended in assay media (McCoy's 5 A with no L-glutamine, 10% fetal bovine serum, 1× antibiotic-antimycotic solution and 0.3 mg/mL G418). An aliquot of 10,000 cells/100 μL was transferred to each well of a clear 96-well tissue culture plate. The cells were incubated in 5% CO2 at 37° C. in an incubator overnight to allow for proper cell attachment. An aliquot of 50 μL of compound containing assay media were then added to each well and the assay plate was kept in 5% CO2 at 37° C. in an incubator for 24 hours. The media was then removed from each well and 150 μL of a methanol/water mixture (80/20 v/v) was added to each well. The plates were kept at −80° C. freezer overnight to allow for complete cell lysis. An aliquot of 125 μL of extracted supernatant was analyzed by RapidFire high-throughout-mass spectrometry (Agilent) to determine the cellular 2-HG level. The IC50 of a given compound was calculated by fitting the dose response curve of cellular 2-HG inhibition at a given concentration with the four parameter logistic equation.

Experiment [2] addresses IDH1-R132H recombinant protein (Homo sapiens (Human), UniProt O75874, R132H). Nature of the experiment: IDH1-R132H enzymatic assay (inhibition of NADPH consumption, diaphorase/resazurin readout). The class given is biochemical. The note with it: read-out: Enzyme IDH1 R132H IC50 (Range). The method in brief: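 Compound was preincubated 15 min at 25 °C with 30 nM IDH1-R132H or 10 nM IDH1-R132C in Tris pH 7.5 buffer with MgCl2, BSA and Triton X-100. Reaction with 2 mM α-ketoglutarate and 20 μM NADPH (solution concentrations) ran 45 min at 25 °C. Remaining NADPH was detected via diaphorase/resazurin fluorescence (ex 535/em 590 nm), and IC50 came from four-parameter fits.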
For orientation: The colour change of resazurin is a common sign of viable cells or microbes.

Experiment [3] has as its system HCT116 isogenic IDH1-R132C mutant cells. Nature of the experiment: Cellular 2-HG assay using HCT116 mutant IDH1 cells (R132C), RapidFire mass spectrometry. It is filed as cell-based. The note with it: Homo sapiens, HCT-116; cellular 2-HG level, HCT116 IDH1-R132C cells, 24 hours; read-out: HCT116 IDH1 R132C IC50 (Range). Here is the method:
as §1, §2

Experiment [4] deals with IDH1-R132C recombinant protein (Homo sapiens (Human), UniProt O75874, R132C). As to the kind of experiment: IDH1-R132C enzymatic assay (inhibition of NADPH consumption, diaphorase/resazurin readout). The class given is biochemical. The settings on record: read-out: Enzyme IDH1 R132C IC50 (Range). Here is the method:
Assays were performed in a 384-well black plate. An aliquot of 250 nL of compound was incubated with 10 μL of 30 nM IDH1-R132H or 10 nM IDH1-R132C recombinant protein in assay buffer (50 mM Tris pH=7.5, 150 mM NaCl, 5 mM MgCl2, 0.1% (w/v) Bovine Serum Albumin, and 0.01% Triton X-100) in each well at 25° C. for 15 minutes. After the plate was centrifuged briefly, an aliquot of 10 μL of 2 mM α-ketoglutarate and 20 μM NADPH solution prepared in assay buffer was then added to each well and the reaction was maintained at 25° C. for 45 minutes. An aliquot of 10 μL of diaphorase solution (0.15 U/mL diaphorase and 30 µM Resazurin in assay buffer) was added to each well. The plate was maintained at 25° C. for 15 minutes and then read on a plate reader with excitation and emission wavelengths at 535 nm and 590 nm, respectively. The IC50 of a given compound was calculated by fitting the dose response curve of inhibition of NADPH consumption at a given concentration with the four parameter logistic equation.

Where only a bound is given, the exact number is not on record here.

The text below walks through data of patent US10280150B2 (FORMA TM2, Inc., priority 2014, dated 2019).

The term IC50 denotes the concentration needed to halve the response being measured.

IDH1-R132H recombinant protein, sequence (O75874 whole entry R132H): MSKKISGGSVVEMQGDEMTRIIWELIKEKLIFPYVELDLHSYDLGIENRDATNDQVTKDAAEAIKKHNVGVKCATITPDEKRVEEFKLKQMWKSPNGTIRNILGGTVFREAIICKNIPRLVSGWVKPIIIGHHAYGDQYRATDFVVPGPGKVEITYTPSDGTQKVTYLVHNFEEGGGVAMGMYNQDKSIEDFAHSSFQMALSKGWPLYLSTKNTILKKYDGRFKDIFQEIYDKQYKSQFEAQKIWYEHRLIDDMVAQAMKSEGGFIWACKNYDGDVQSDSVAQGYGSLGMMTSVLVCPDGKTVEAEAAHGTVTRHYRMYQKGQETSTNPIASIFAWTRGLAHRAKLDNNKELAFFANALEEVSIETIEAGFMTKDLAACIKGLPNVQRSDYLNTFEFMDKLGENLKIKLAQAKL
IDH1-R132C recombinant protein, sequence (O75874 whole entry R132C): as the sequence (O75874 whole entry R132H) above, with H132C counted along it

As to `C[C@H](Nc1ncc(C#N)c(N)n1)c1cc2cc(Cl)ccc2[nH]c1=O` [Compound I-37], the IC50 lay in the range of 0.1 to 1 µM in experiment [1], 0.1 to 1 µM in experiment [2] and 1 to 10 µM in experiment [3].
Take `CC(C)(Nc1nccc(N2CCOC2=O)n1)c1cc2cc(Cl)ccc2[nH]c1=O` [Compound I-170]: the IC50 in experiment [1] was in the range of 0.1 to 1 µM; in experiment [2] it was 0.1 to 1 µM; in experiment [3] it was 1 to 10 µM.
Regarding `CC(C)OC(=O)Nc1ccnc(N[C@@H](C)c2cc3cc(Cl)ccc3[nH]c2=O)n1` [Compound I-23, (S)-Isopropyl (2-((1-(6-chloro-2-oxo-1,2-dihydroquinolin-3-yl)ethyl)amino)pyrimidin-4-yl)carbamate], the IC50 lay within 0.1 to 1 µM in experiment [1], 1 to 10 µM in experiment [2] and 0.1 to 1 µM in experiment [3].
Regarding `C[C@H](Nc1ncc(C#N)c(C2CC2)n1)c1cc2cc(Cl)ccc2[nH]c1=O` [Compound I-40, (S)-2-((1-(6-Chloro-2-oxo-1,2-dihydroquinolin-3-yl)ethyl)amino)-4-cyclopropylpyrimidine-5-carbonitrile], the IC50 in experiment [1] was 1 to 10 µM; in experiment [2], less than 0.1 µM; in experiment [3] it was 0.1 to 1 µM.
In the case of `COc1cc2[nH]c(=O)c([C@H](C)Nc3nccc(N4CCOC4=O)n3)cc2cc1Cl` [Compound I-147], the IC50 in experiment [1], in experiment [2] and in experiment [3] was less than 0.1 µM each time.
For the molecule `C[C@H](Nc1nccc(-n2nnnc2C2CC2)n1)c1cc2cc(Cl)ccc2[nH]c1=O` [Compound I-183, (S)-6-chloro-3-(1-((4-(5-cyclopropyl-1H-tetrazol-1-yl)pyrimidin-2-yl)amino)ethyl)quinolin-2(1H)-one], the IC50 in experiment [4] is less than 0.1 µM; in experiment [2], less than 0.1 µM; in experiment [3] it was 0.1 to 1 µM.
`Cc1nc(N[C@@H](C)c2cc3cc(Cl)c(OCc4ccccn4)cc3[nH]c2=O)ncc1C#N` [Compound I-153]: the IC50 in experiment [4], in experiment [2] and in experiment [3] was less than 0.1 µM in each case.
In the case of `C[C@H](Nc1nccc(-c2cccn2C)n1)c1cc2cc(Cl)ccc2[nH]c1=O` [Compound I-81], the IC50 in experiment [1] was 0.1 to 1 µM; in experiment [2] it was less than 0.1 µM; in experiment [3], 0.1 to 1 µM.
`Cc1cscc1-c1ccnc(N[C@@H](C)c2cc3cc(Cl)ccc3[nH]c2=O)n1` [Compound I-80]: the values for the IC50 in experiment [1], in experiment [2] and in experiment [3] were 0.1 to 1 µM, less than 0.1 µM and 0.1 to 1 µM, respectively.
Take `C[C@H](Nc1nccc(-c2ccnn2C2CCCCO2)n1)c1cc2cc(Cl)ccc2[nH]c1=O` (stereo partly shown) [Compound I-79]: the IC50 is 1 to 10 µM in experiment [1], less than 0.1 µM in experiment [2] and 1 to 10 µM in experiment [3].
`CC(C)[C@H]1COC(=O)N1c1ccnc(N[C@@H](C)c2cc3cc(Cl)ccc3[nH]c2=O)n1` [Compound I-42, (S)-3-(2-(((S)-1-(6-Chloro-2-oxo-1,2-dihydroquinolin-3-yl)ethyl)amino)pyrimidin-4-yl)-4-isopropyloxazolidin-2-one]: the IC50 in experiment [4], in experiment [2] and in experiment [3] was less than 0.1 µM in each case.
As for `C[C@H](Nc1nccc(N2CCN(C)C2=O)n1)c1cc2cc(Cl)ccc2[nH]c1=O` [Compound I-124], the IC50 in experiment [1], in experiment [2] and in experiment [3] was 0.1 to 1 µM throughout.
As to `Cc1c(-c2ccnc(N[C@@H](C)c3cc4cc(Cl)ccc4[nH]c3=O)n2)cnn1C` [Compound I-74], the IC50 in experiment [1], in experiment [2] and in experiment [3] was 0.1 to 1 µM in each case.
`CC(Nc1nccc(N2CCOC2=O)n1)c1cc2cc(Cl)ccc2[nH]c1=O` (stereo not shown) [Compound I-48]: the IC50 is 0.1 to 1 µM in experiment [4] and less than 0.1 µM in experiment [2].
The like results for `CC(C)n1cncc1-c1ccnc(N[C@@H](C)c2cc3cc(Cl)ccc3n(C)c2=O)n1` [Compound I-173, (S)-6-chloro-3-(1-((4-(1-isopropyl-1H-imidazol-5-yl)pyrimidin-2-yl)amino)ethyl)-1-methylquinolin-2(1H)-one] were, in that order, less than 0.1 µM and less than 0.1 µM.
